# Experiments:
# Type in all cases: in vitro ADME
# CYP2B6 = molecular target: T1, CYP2B6 (Homo sapiens, UniProt P20813); assay: CYP450 inhibition in human liver microsomes, CYP2B6; conditions: pH 7.4, read-out: % CYP inhibition @ 10 µM 2B6
# T1 construct: tissue Corning or Xenotech; host or cells: human liver microsomes
# T1 sequence (P20813 1-491): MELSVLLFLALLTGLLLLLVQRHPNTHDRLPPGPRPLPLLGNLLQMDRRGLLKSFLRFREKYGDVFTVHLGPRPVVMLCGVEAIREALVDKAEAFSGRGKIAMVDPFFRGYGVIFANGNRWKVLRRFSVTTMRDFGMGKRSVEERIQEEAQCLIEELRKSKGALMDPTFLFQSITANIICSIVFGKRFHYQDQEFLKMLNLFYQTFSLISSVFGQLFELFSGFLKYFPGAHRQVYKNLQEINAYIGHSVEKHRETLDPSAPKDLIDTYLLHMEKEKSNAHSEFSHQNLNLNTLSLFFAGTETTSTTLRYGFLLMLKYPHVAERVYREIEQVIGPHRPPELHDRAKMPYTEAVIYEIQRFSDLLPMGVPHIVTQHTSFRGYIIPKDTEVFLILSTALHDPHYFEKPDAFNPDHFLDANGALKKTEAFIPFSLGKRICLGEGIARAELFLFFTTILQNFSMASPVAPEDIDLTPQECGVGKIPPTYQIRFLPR
# Text: (§1) According to standard methods in the field for the study of cytochrome P450 enzyme systems, such as the method described in Kerns, Edward H. and Di Li et al., Drug-like Properties: Concepts, Structure Design and Methods: from ADME to Toxicity Optimization (2008), San Diego, Academic Press, and Lin, Tong et al., In Vitro Assessment of Cytochrome P450 Inhibition: Strategies for Increasing LC/MS-Based Assay Throughput Using a One-Point IC50 Method and Multiplexing High-Performance Liquid Chromatography (J. Pharm. Sci. 2007, 96 (9), 2485). The inhibitory effect of the disclosed compounds on the cytochrome P450 enzyme system was similarly examined below.
# (§2) Human liver microsomes were purchased from Corning or Xenotech. The test compounds were evaluated by detecting the metabolism of substrates for different Cyp450 isoforms by human liver microsomes.
# (§3) 0.1 M potassium phosphate buffer (K-buffer, pH 7.4) was pre-warmed.
# (§4) 100 mM K-buffer was prepared by mixing 9.5 mL of stock solution A (1 M potassium dihydrogen phosphate, prepared by dissolving 136.5 g of potassium dihydrogen phosphate in 1 L of Milli-Q water) with 40.5 mL of stock solution B (1 M potassium hydrogen phosphate, prepared by dissolving 174.2 g of potassium hydrogen phosphate in 1 L of Milli-Q water). The total volume was adjusted to 500 mL with Milli-Q water, and the buffer was titrated to pH 7.4 using KOH or H3PO4.
# (§5) Test compound solution and specific inhibitor solution (400× dilution) were prepared in a 96-well plate. For the test compound, 8 µL of 10 mM test compound was transferred into 12 µL of ACN. For specific inhibitors of CYP1A2, CYP2C9, and CYP2D6: 12 µL of 1 mM α-naphthoflavone, 10 µL of 40 mM sulfaphenazole, 10 µL of 10 mM quinidine, and 8 µL of DMSO were mixed. For specific inhibitors of CYP3A4, CYP2B6, CYP2C8, and CYP2C19: 8 µL of DMSO stock solution was added to 12 µL of ACN.
# (§6) A 4× diluted NADPH solution was prepared by dissolving 66.7 mg of NADPH in 10 mL of 0.1 M K-buffer (pH 7.4). […]
# CYP2C9 = molecular target: T2, CYP2C9 (Homo sapiens, UniProt P11712); assay: CYP450 inhibition in human liver microsomes, CYP2C9; conditions: pH 7.4, read-out: % CYP inhibition @ 10 µM 2C9
# T2 construct: tissue Corning or Xenotech; host or cells: human liver microsomes
# T2 sequence (P11712 whole entry): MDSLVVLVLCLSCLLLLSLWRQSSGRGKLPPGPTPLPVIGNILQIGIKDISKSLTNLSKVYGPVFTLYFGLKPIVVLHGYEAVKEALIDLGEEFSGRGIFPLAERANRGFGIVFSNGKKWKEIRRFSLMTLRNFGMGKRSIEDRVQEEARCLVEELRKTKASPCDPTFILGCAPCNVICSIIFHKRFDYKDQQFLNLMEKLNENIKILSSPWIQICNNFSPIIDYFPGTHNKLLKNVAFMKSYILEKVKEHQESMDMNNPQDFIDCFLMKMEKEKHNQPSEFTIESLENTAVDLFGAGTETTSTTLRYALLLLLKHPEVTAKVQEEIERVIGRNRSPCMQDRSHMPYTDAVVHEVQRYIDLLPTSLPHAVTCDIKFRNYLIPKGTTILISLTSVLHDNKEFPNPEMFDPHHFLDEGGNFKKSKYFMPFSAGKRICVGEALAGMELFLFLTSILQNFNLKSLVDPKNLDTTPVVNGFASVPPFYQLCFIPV
# Text: as §1, §2, §3, §4, §5, §6
# CYP2D6 = molecular target: T3, CYP2D6 (Homo sapiens, UniProt P10635); assay: CYP450 inhibition in human liver microsomes, CYP2D6; conditions: pH 7.4, read-out: % CYP inhibition @ 10 µM 2D6
# T3 construct: tissue Corning or Xenotech; host or cells: human liver microsomes
# T3 sequence (P10635 whole entry): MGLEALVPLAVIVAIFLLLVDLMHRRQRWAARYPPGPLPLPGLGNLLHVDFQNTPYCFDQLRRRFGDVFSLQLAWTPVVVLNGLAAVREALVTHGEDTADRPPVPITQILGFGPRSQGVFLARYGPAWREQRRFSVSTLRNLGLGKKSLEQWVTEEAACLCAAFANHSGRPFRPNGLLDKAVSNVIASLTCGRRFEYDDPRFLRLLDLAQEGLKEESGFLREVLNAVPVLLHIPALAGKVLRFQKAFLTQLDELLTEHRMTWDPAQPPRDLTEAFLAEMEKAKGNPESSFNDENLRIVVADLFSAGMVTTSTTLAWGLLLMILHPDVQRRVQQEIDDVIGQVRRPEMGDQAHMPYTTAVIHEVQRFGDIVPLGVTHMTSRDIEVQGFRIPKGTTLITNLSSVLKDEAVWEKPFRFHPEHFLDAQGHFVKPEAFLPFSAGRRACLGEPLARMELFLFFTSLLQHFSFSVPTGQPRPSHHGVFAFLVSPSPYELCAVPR
# Text: as §1, §2, §3, §4, §5, §6
Structure (SMILES),"inhibition at 10 min, 10 µM (CYP2B6) [%]","inhibition at 10 min, 10 µM (CYP2C9) [%]","inhibition at 10 min, 10 µM (CYP2D6) [%]"
O=C(Nc1ccc(-c2cc3cc(F)c(-c4nnn[nH]4)cc3n2C2CCC2)cc1)C(=O)Nc1ccc(N2CCC(CO)CC2)cc1 [Example 23],1.32,-3.32,-5.43
O=C(Nc1ccc(-c2cc3cc(F)c(-c4nnn[nH]4)cc3n2C2CCC2)cc1)C(=O)Nc1ccc(N2CCC3(CCOC3)CC2)cc1 [Example 67],15.3,7.84,-12.6
CC1(n2c(-c3ccc(NC(=O)C(=O)Nc4ccc(N5CCC6(CCOC6)CC5)cc4)cc3)cc3cc(F)c(-c4nnn[nH]4)cc32)CCC1 [Example 68],7.06,6.51,-4.07

# Source: patent EP4741383A1, “COMPOUND AND USE THEREOF AS ANTI-CANCER DRUG” (Tyligand Bioscience (Shanghai) Limited, priority 2023, dated 2025)
